Reference: US20230114728A1 (Venatorx Pharmaceuticals, Inc., priority 2019, published 2023)
Values after ≈ are worked out from the molar mass of the structure shown.

Experiments:
Format in all cases: cell-based
A. baumannii ATCC 19606 = test: Broth microdilution MIC in CAMHB; conditions: Acinetobacter baumannii, ATCC19606; MHB; read-out: Minimum Inhibitory Concentration, A. baumannii ATCC 19606
Method in brief: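 MIC, read by eye, is the lowest compound concentration giving no bacterial growth after 16-20 h at 37° C. Test compounds are serially diluted 2-fold in CAMHB and seeded with 2-8×10^5 CFU/mL of bacteria taken from a 3-5 h shaking culture, following CLSI methods.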

E. coli 901C = test: Broth microdilution MIC in CAMHB; conditions: Escherichia coli; E. coli 901C (hyper-permeable); MHB; read-out: Minimum Inhibitory Concentration, E. coli 901C
Method in brief: (§1)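 Per CLSI broth microdilution, colonies were grown 3-5 h at 37° C in cation-adjusted Mueller Hinton broth, then diluted to a starting inoculum of 2-8×10^5 CFU/mL against 2-fold serial compound dilutions. Plates were incubated 16-20 h at 37° C, and MIC was read visually as the lowest concentration with no growth.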

E. coli AG100 = test: Broth microdilution MIC in CAMHB; conditions: Escherichia coli; E. coli AG100 (wild-type parent); MHB; read-out: Minimum Inhibitory Concentration, E. coli AG100
Method in brief: as §1

E. coli D22 = test: Broth microdilution MIC in CAMHB; conditions: Escherichia coli; E. coli D22 (hyper-permeable); MHB; read-out: Minimum Inhibitory Concentration, E. coli D22
Method in brief: as §1

[1] = system: K. pneumoniae SI-117 producing VIM-1; test: Broth microdilution MIC in CAMHB; conditions: Klebsiella pneumoniae, read-out: Minimum Inhibitory Concentration, K. pneumoniae SI-117
Method in brief: as §1

[2] = system: N. gonorrhoeae ATCC 49226; test: Liquid broth MIC in Fastidious broth; conditions: Neisseria gonorrhoeae, ATCC49226; N. gonorrhoeae strain ATCC 49226; Fastidious broth; read-out: Minimum Inhibitory Concentration, N. gonorrhoeae ATCC 49226
Method in brief: (§2)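 Colonies were swabbed from chocolate agar after 24 h growth and standardised by optical density at 600 nm. Compounds were serially diluted twofold in Fastidious broth, and bacteria added to give 5×10^5 CFU/mL. After about 24 h at 36 °C in 5% CO2, the lowest concentration allowing under 10% growth was taken as MIC.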

N. gonorrhoeae FA1090 = test: Liquid broth MIC in Fastidious broth; conditions: Neisseria gonorrhoeae; N. gonorrhoeae strain FA1090; Fastidious broth; read-out: Minimum Inhibitory Concentration, N. gonorrhoeae FA1090
Method in brief: as §2

N. gonorrhoeae H041 = test: Liquid broth MIC in Fastidious broth; conditions: Neisseria gonorrhoeae, H041, read-out: Minimum Inhibitory Concentration, N. gonorrhoeae H041
Method in brief: (§3)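 Mosaic PBP2 producers; colonies from 24 h chocolate agar, saline suspension, OD600. Fastidious broth, 2-fold dilutions, 5×10^5 CFU/mL. ~24 h, 36 °C, 5% CO2; visual MIC, <10% growth cutoff.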

N. gonorrhoeae WHO G = test: Liquid broth MIC in Fastidious broth; conditions: Neisseria gonorrhoeae; N. gonorrhoeae strain WHO G; Fastidious broth; read-out: Minimum Inhibitory Concentration, N. gonorrhoeae WHO G
Method in brief: as §2

N. gonorrhoeae WHO K = test: Liquid broth MIC in Fastidious broth; conditions: Neisseria gonorrhoeae, read-out: Minimum Inhibitory Concentration, N. gonorrhoeae WHO K
Method in brief: as §3

N. gonorrhoeae WHO L = test: Liquid broth MIC in Fastidious broth; conditions: Neisseria gonorrhoeae; N. gonorrhoeae strain WHO L; Fastidious broth; read-out: Minimum Inhibitory Concentration, N. gonorrhoeae WHO L
Method in brief: as §2

N. gonorrhoeae WHO Q = test: Liquid broth MIC in Fastidious broth; conditions: Neisseria gonorrhoeae, read-out: Minimum Inhibitory Concentration, N. gonorrhoeae WHO Q
Method in brief: as §3

N. gonorrhoeae WHO Z = test: Liquid broth MIC in Fastidious broth; conditions: Neisseria gonorrhoeae, read-out: Minimum Inhibitory Concentration, N. gonorrhoeae WHO Z
Method in brief: as §3

Row | SMILES | MIC (A. baumannii ATCC 19606) | MIC (E. coli 901C) | MIC (E. coli AG100) | MIC (E. coli D22) | MIC [1] | MIC [2] | MIC (N. gonorrhoeae FA1090) | MIC (N. gonorrhoeae H041) | MIC (N. gonorrhoeae WHO G) | MIC (N. gonorrhoeae WHO K) | MIC (N. gonorrhoeae WHO L) | MIC (N. gonorrhoeae WHO Q) | MIC (N. gonorrhoeae WHO Z)
1 | CCN1CCN(C(=O)N[C@H](C(=O)N[C@H]2Cc3cccc(C(=O)O)c3OB2O)c2ccc(C(=O)O)c(Cl)c2)C(=O)C1=O (single isomer, unassigned) [Example 155] | > 128 µg/mL | < 0.25 µg/mL | 32 to 64 µg/mL (≈ 54.5 to 109 µM) | 2 to 4 µg/mL (≈ 3.41 to 6.82 µM) | > 128 µg/mL | 1 to 2 µg/mL (≈ 1.7 to 3.41 µM) | < 0.125 µg/mL | 4 to 8 µg/mL (≈ 6.82 to 13.6 µM) | 0.25 to 0.5 µg/mL (≈ 0.426 to 0.852 µM) | 1 to 2 µg/mL (≈ 1.7 to 3.41 µM) | 16 to 32 µg/mL (≈ 27.3 to 54.5 µM) | 1 to 2 µg/mL (≈ 1.7 to 3.41 µM) | 1 to 2 µg/mL (≈ 1.7 to 3.41 µM)
2 | NCCN1CCN(C(=O)N[C@H](C(=O)N[C@H]2Cc3cccc(C(=O)O)c3OB2O)c2cc(F)c(O)c(F)c2)C(=O)C1=O (single isomer, unassigned) [Example 158] | > 128 µg/mL | 2 to 4 µg/mL (≈ 3.48 to 6.95 µM) | > 128 µg/mL | 8 to 16 µg/mL (≈ 13.9 to 27.8 µM) | > 128 µg/mL | > 64 µg/mL | 4 to 8 µg/mL (≈ 6.95 to 13.9 µM) | > 64 µg/mL | 16 to 32 µg/mL (≈ 27.8 to 55.6 µM) | > 64 µg/mL | > 64 µg/mL | > 64 µg/mL | > 64 µg/mL
3 | NCCN1CCN(C(=O)N[C@@H](C(=O)N[C@H]2Cc3cccc(C(=O)O)c3OB2O)c2cc(F)c(O)c(F)c2)C(=O)C1=O (single isomer, unassigned) [Example 159] | > 128 µg/mL | 0.5 to 1 µg/mL (≈ 0.869 to 1.74 µM) | 8 to 16 µg/mL (≈ 13.9 to 27.8 µM) | 2 to 4 µg/mL (≈ 3.48 to 6.95 µM) | 32 to 64 µg/mL (≈ 55.6 to 111 µM) | 16 to 32 µg/mL (≈ 27.8 to 55.6 µM) | 1 to 2 µg/mL (≈ 1.74 to 3.48 µM) | > 64 µg/mL | 4 to 8 µg/mL (≈ 6.95 to 13.9 µM) | > 64 µg/mL | > 64 µg/mL | > 64 µg/mL | > 64 µg/mL
4 | NCCN1CCN(C(=O)N[C@H](C(=O)N[C@H]2Cc3cccc(C(=O)O)c3OB2O)c2cc(Cl)c(O)c(Cl)c2)C(=O)C1=O (single isomer, unassigned) [Example 165] | > 128 µg/mL | 2 to 4 µg/mL (≈ 3.29 to 6.58 µM) | > 128 µg/mL | 32 to 64 µg/mL (≈ 52.6 to 105 µM) | > 128 µg/mL | > 64 µg/mL | 4 to 8 µg/mL (≈ 6.58 to 13.2 µM) | > 64 µg/mL | > 64 µg/mL | > 64 µg/mL | > 64 µg/mL | > 64 µg/mL | > 64 µg/mL
5 | NCCN1CCN(C(=O)N[C@@H](C(=O)N[C@H]2Cc3cccc(C(=O)O)c3OB2O)c2cc(Cl)c(O)c(Cl)c2)C(=O)C1=O (single isomer, unassigned) [Example 166] | > 128 µg/mL | < 0.25 µg/mL | 8 to 16 µg/mL (≈ 13.2 to 26.3 µM) | 2 to 4 µg/mL (≈ 3.29 to 6.58 µM) | 32 to 64 µg/mL (≈ 52.6 to 105 µM) | 16 to 32 µg/mL (≈ 26.3 to 52.6 µM) | 0.25 to 0.5 µg/mL (≈ 0.411 to 0.822 µM) | > 64 µg/mL | 4 to 8 µg/mL (≈ 6.58 to 13.2 µM) | > 64 µg/mL | > 64 µg/mL | 16 to 32 µg/mL (≈ 26.3 to 52.6 µM) | 16 to 32 µg/mL (≈ 26.3 to 52.6 µM)
6 | NCCN1CCN(C(=O)N[C@H](C(=O)N[C@H]2Cc3cccc(C(=O)O)c3OB2O)c2cc(F)c(O)c(F)c2F)C(=O)C1=O (single isomer, unassigned) [Example 167] | > 128 µg/mL | 2 to 4 µg/mL (≈ 3.37 to 6.74 µM) | 32 to 64 µg/mL (≈ 53.9 to 108 µM) | 8 to 16 µg/mL (≈ 13.5 to 27 µM) | > 128 µg/mL | 16 to 32 µg/mL (≈ 27 to 53.9 µM) | 1 to 2 µg/mL (≈ 1.69 to 3.37 µM) | > 64 µg/mL | 16 to 32 µg/mL (≈ 27 to 53.9 µM) | > 64 µg/mL | > 64 µg/mL | > 64 µg/mL | > 64 µg/mL
7 | NCCN1CCN(C(=O)N[C@@H](C(=O)N[C@H]2Cc3cccc(C(=O)O)c3OB2O)c2cc(F)c(O)c(F)c2F)C(=O)C1=O (single isomer, unassigned) [Example 168] | > 128 µg/mL | < 0.25 µg/mL | 8 to 16 µg/mL (≈ 13.5 to 27 µM) | 0.5 to 1 µg/mL (≈ 0.843 to 1.69 µM) | 32 to 64 µg/mL (≈ 53.9 to 108 µM) | 4 to 8 µg/mL (≈ 6.74 to 13.5 µM) | 0.25 to 0.5 µg/mL (≈ 0.421 to 0.843 µM) | > 64 µg/mL | 1 to 2 µg/mL (≈ 1.69 to 3.37 µM) | 16 to 32 µg/mL (≈ 27 to 53.9 µM) | 16 to 32 µg/mL (≈ 27 to 53.9 µM) | 16 to 32 µg/mL (≈ 27 to 53.9 µM) | 16 to 32 µg/mL (≈ 27 to 53.9 µM)
8 | NCCN1CCN(C(=O)N[C@H](C(=O)N[C@H]2Cc3cccc(C(=O)O)c3OB2O)c2ccc(O)c(F)c2F)C(=O)C1=O (single isomer, unassigned) [Example 169] | > 128 µg/mL | 2 to 4 µg/mL (≈ 3.48 to 6.95 µM) | 32 to 64 µg/mL (≈ 55.6 to 111 µM) | 32 to 64 µg/mL (≈ 55.6 to 111 µM) | > 128 µg/mL | > 64 µg/mL | 4 to 8 µg/mL (≈ 6.95 to 13.9 µM) | > 64 µg/mL | > 64 µg/mL | > 64 µg/mL | > 64 µg/mL | > 64 µg/mL | > 64 µg/mL
